Measured values reported in patent US12215140B2, “Method of stabilizing protein contained in specimen and solution for stabilizing protein contained in specimen” (EIKEN KAGAKU KABUSHIKI KAISHA, priority 2018, dated 2025).

Tested on: hemoglobin-haptoglobin complex
Assay: Stability of hemoglobin (as hemoglobin-haptoglobin complex) in samples preserved at 37° C. in preservation solution containing 1 unit/L haptoglobin, Hb measured by latex agglutination method (Examples 1 to 7)
Set-up: species or system human
Conditions: for Hb concentration / Recovery ratio with respect to Hb concentration after 0 days: 37° C.
Procedure, shortened: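 Hemoglobin (~300 µg/L) in 0.5% fecal suspension, or without feces, held at 37 °C for 0–21 days in 40 mmol/L HEPES pH 6.8, 0.1% BSA, 0.1% NaN3, 1 unit/L haptoglobin, with 0–100 mmol/L phenylboronic acid ± sugars. Hb quantified by latex agglutination with anti-human Hb rabbit polyclonal; recovery (%) relative to day 0.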

[1] = Feces 1, sugar 50 mmol/L + phenylboronic acid 15 mmol/L, 0 days
[2] = Feces 1, sugar 50 mmol/L + phenylboronic acid 15 mmol/L, 7 days
[3] = Feces 1, sugar 50 mmol/L + phenylboronic acid 15 mmol/L, 14 days
[4] = Feces 1, sugar 50 mmol/L + phenylboronic acid 15 mmol/L, 21 days
[5] = Feces 1, sugar 100 mmol/L + phenylboronic acid 15 mmol/L, 0 days
[6] = Feces 1, sugar 100 mmol/L + phenylboronic acid 15 mmol/L, 7 days
[7] = Feces 1, sugar 100 mmol/L + phenylboronic acid 15 mmol/L, 14 days
[8] = Feces 1, sugar 100 mmol/L + phenylboronic acid 15 mmol/L, 21 days
[9] = Feces 1, sugar 100 mmol/L, no phenylboronic acid, 0 days
[10] = Feces 1, sugar 100 mmol/L, no phenylboronic acid, 7 days
[11] = Feces 1, sugar 100 mmol/L, no phenylboronic acid, 14 days
[12] = Feces 1, sugar 100 mmol/L, no phenylboronic acid, 21 days
[13] = Feces 2, sugar 50 mmol/L + phenylboronic acid 15 mmol/L, 0 days
[14] = Feces 2, sugar 50 mmol/L + phenylboronic acid 15 mmol/L, 7 days
[15] = Feces 2, sugar 50 mmol/L + phenylboronic acid 15 mmol/L, 14 days
[16] = Feces 2, sugar 50 mmol/L + phenylboronic acid 15 mmol/L, 21 days
[17] = Feces 2, sugar 100 mmol/L + phenylboronic acid 15 mmol/L, 0 days
[18] = Feces 2, sugar 100 mmol/L + phenylboronic acid 15 mmol/L, 7 days
[19] = Feces 2, sugar 100 mmol/L + phenylboronic acid 15 mmol/L, 14 days
[20] = Feces 2, sugar 100 mmol/L + phenylboronic acid 15 mmol/L, 21 days
[21] = Feces 2, sugar 100 mmol/L, no phenylboronic acid, 0 days
[22] = Feces 2, sugar 100 mmol/L, no phenylboronic acid, 7 days
[23] = Feces 2, sugar 100 mmol/L, no phenylboronic acid, 14 days
[24] = Feces 2, sugar 100 mmol/L, no phenylboronic acid, 21 days
[25] = Feces 3, sugar 50 mmol/L + phenylboronic acid 15 mmol/L, 0 days
[26] = Feces 3, sugar 50 mmol/L + phenylboronic acid 15 mmol/L, 7 days
[27] = Feces 3, sugar 50 mmol/L + phenylboronic acid 15 mmol/L, 14 days
[28] = Feces 3, sugar 50 mmol/L + phenylboronic acid 15 mmol/L, 21 days
[29] = Feces 3, sugar 100 mmol/L + phenylboronic acid 15 mmol/L, 0 days
[30] = Feces 3, sugar 100 mmol/L + phenylboronic acid 15 mmol/L, 7 days
[31] = Feces 3, sugar 100 mmol/L + phenylboronic acid 15 mmol/L, 14 days
[32] = Feces 3, sugar 100 mmol/L + phenylboronic acid 15 mmol/L, 21 days
[33] = Feces 3, sugar 100 mmol/L, no phenylboronic acid, 0 days
[34] = Feces 3, sugar 100 mmol/L, no phenylboronic acid, 7 days
[35] = Feces 3, sugar 100 mmol/L, no phenylboronic acid, 14 days
[36] = Feces 3, sugar 100 mmol/L, no phenylboronic acid, 21 days
[37] = No feces, sugar 50 mmol/L + phenylboronic acid 15 mmol/L, 0 days
[38] = No feces, sugar 50 mmol/L + phenylboronic acid 15 mmol/L, 7 days
[39] = No feces, sugar 50 mmol/L + phenylboronic acid 15 mmol/L, 14 days
[40] = No feces, sugar 50 mmol/L + phenylboronic acid 15 mmol/L, 21 days
[41] = No feces, sugar 100 mmol/L + phenylboronic acid 15 mmol/L, 0 days
[42] = No feces, sugar 100 mmol/L + phenylboronic acid 15 mmol/L, 7 days
[43] = No feces, sugar 100 mmol/L + phenylboronic acid 15 mmol/L, 14 days
[44] = No feces, sugar 100 mmol/L + phenylboronic acid 15 mmol/L, 21 days
[45] = No feces, sugar 100 mmol/L, no phenylboronic acid, 0 days
[46] = No feces, sugar 100 mmol/L, no phenylboronic acid, 7 days
[47] = No feces, sugar 100 mmol/L, no phenylboronic acid, 14 days
[48] = No feces, sugar 100 mmol/L, no phenylboronic acid, 21 days

SMILES: OC[C@H]1O[C@H](O[C@H]2O[C@H](CO)[C@@H](O)[C@H](O)[C@H]2O)[C@H](O)[C@@H](O)[C@@H]1O [Trehalose, trehalose]
- Hb concentration [1]: 299 µg/L
- Recovery ratio with respect to Hb concentration after 0 days [1]: 100%
- Hb concentration [2]: 261 µg/L
- Recovery ratio with respect to Hb concentration after 0 days [2]: 87%
- Hb concentration [3]: 247 µg/L
- Recovery ratio with respect to Hb concentration after 0 days [3]: 83%
- Hb concentration [4]: 241 µg/L
- Recovery ratio with respect to Hb concentration after 0 days [4]: 81%
- Hb concentration [5]: 291 µg/L
- Recovery ratio with respect to Hb concentration after 0 days [5]: 100%
- Hb concentration [6]: 249 µg/L
- Recovery ratio with respect to Hb concentration after 0 days [6]: 86%
- Hb concentration [7]: 238 µg/L
- Recovery ratio with respect to Hb concentration after 0 days [7]: 82%
- Hb concentration [8]: 230 µg/L
- Recovery ratio with respect to Hb concentration after 0 days [8]: 79%
- Hb concentration [9]: 266 µg/L
- Recovery ratio with respect to Hb concentration after 0 days [9]: 100%
- Hb concentration [10]: 121 µg/L
- Recovery ratio with respect to Hb concentration after 0 days [10]: 45%
- Hb concentration [11]: 80 µg/L
- Recovery ratio with respect to Hb concentration after 0 days [11]: 30%
- Hb concentration [12]: 44 µg/L
- Recovery ratio with respect to Hb concentration after 0 days [12]: 17%
- Hb concentration [13]: 284 µg/L
- Recovery ratio with respect to Hb concentration after 0 days [13]: 100%
- Hb concentration [14]: 257 µg/L
- Recovery ratio with respect to Hb concentration after 0 days [14]: 90%
- Hb concentration [15]: 223 µg/L
- Recovery ratio with respect to Hb concentration after 0 days [15]: 79%
- Hb concentration [16]: 201 µg/L
- Recovery ratio with respect to Hb concentration after 0 days [16]: 71%
- Hb concentration [17]: 269 µg/L
- Recovery ratio with respect to Hb concentration after 0 days [17]: 100%
- Hb concentration [18]: 251 µg/L
- Recovery ratio with respect to Hb concentration after 0 days [18]: 93%
- Hb concentration [19]: 227 µg/L
- Recovery ratio with respect to Hb concentration after 0 days [19]: 84%
- Hb concentration [20]: 206 µg/L
- Recovery ratio with respect to Hb concentration after 0 days [20]: 77%
- Hb concentration [21]: 264 µg/L
- Recovery ratio with respect to Hb concentration after 0 days [21]: 100%
- Hb concentration [22]: 106 µg/L
- Recovery ratio with respect to Hb concentration after 0 days [22]: 40%
- Hb concentration [23]: 61 µg/L
- Recovery ratio with respect to Hb concentration after 0 days [23]: 23%
- Hb concentration [24]: 41 µg/L
- Recovery ratio with respect to Hb concentration after 0 days [24]: 16%
- Hb concentration [25]: 282 µg/L
- Recovery ratio with respect to Hb concentration after 0 days [25]: 100%
- Hb concentration [26]: 221 µg/L
- Recovery ratio with respect to Hb concentration after 0 days [26]: 78%
- Hb concentration [27]: 197 µg/L
- Recovery ratio with respect to Hb concentration after 0 days [27]: 70%
- Hb concentration [28]: 178 µg/L
- Recovery ratio with respect to Hb concentration after 0 days [28]: 63%
- Hb concentration [29]: 281 µg/L
- Recovery ratio with respect to Hb concentration after 0 days [29]: 100%
- Hb concentration [30]: 213 µg/L
- Recovery ratio with respect to Hb concentration after 0 days [30]: 76%
- Hb concentration [31]: 192 µg/L
- Recovery ratio with respect to Hb concentration after 0 days [31]: 68%
- Hb concentration [32]: 179 µg/L
- Recovery ratio with respect to Hb concentration after 0 days [32]: 64%
- Hb concentration [33]: 267 µg/L
- Recovery ratio with respect to Hb concentration after 0 days [33]: 100%
- Hb concentration [34]: 91 µg/L
- Recovery ratio with respect to Hb concentration after 0 days [34]: 34%
- Hb concentration [35]: 56 µg/L
- Recovery ratio with respect to Hb concentration after 0 days [35]: 21%
- Hb concentration [36]: 47 µg/L
- Recovery ratio with respect to Hb concentration after 0 days [36]: 18%
- Hb concentration [37]: 268 µg/L
- Recovery ratio with respect to Hb concentration after 0 days [37]: 100%
- Hb concentration [38]: 253 µg/L
- Recovery ratio with respect to Hb concentration after 0 days [38]: 94%
- Hb concentration [39]: 255 µg/L
- Recovery ratio with respect to Hb concentration after 0 days [39]: 95%
- Hb concentration [40]: 257 µg/L
- Recovery ratio with respect to Hb concentration after 0 days [40]: 96%
- Hb concentration [41]: 269 µg/L
- Recovery ratio with respect to Hb concentration after 0 days [41]: 100%
- Hb concentration [42]: 248 µg/L
- Recovery ratio with respect to Hb concentration after 0 days [42]: 92%
- Hb concentration [43]: 251 µg/L
- Recovery ratio with respect to Hb concentration after 0 days [43]: 93%
- Hb concentration [44]: 251 µg/L
- Recovery ratio with respect to Hb concentration after 0 days [44]: 93%
- Hb concentration [45]: 243 µg/L
- Recovery ratio with respect to Hb concentration after 0 days [45]: 100%
- Hb concentration [46]: 229 µg/L
- Recovery ratio with respect to Hb concentration after 0 days [46]: 94%
- Hb concentration [47]: 225 µg/L
- Recovery ratio with respect to Hb concentration after 0 days [47]: 93%
- Hb concentration [48]: 222 µg/L
- Recovery ratio with respect to Hb concentration after 0 days [48]: 91%
- recovery ratio of hemoglobin in the samples containing fecal specimens (sugar 100 mmol/L, preservation solutions containing no phenylboronic acid): does not improve
- recovery ratios (sugar further added to phenylboronic acid 15 mmol/L, Feces 3): not improved
